According to EP4813990A1, “COMPOUND FOR TREATING CANCER” (INNOLAKE BIOPHARMA (HANGZHOU) CO., LTD., priority 2023, dated 2025):

How the values were obtained:
[1] = biological target: T1, A2aR (Homo sapiens, UniProt P29274); assay: Inhibition of binding of A2aR to its isotopically labeled ligand
From the text: (§1) Meanwhile, ILB-2109 had high selectivity for A2aR (compared with A1, A2b and A3 receptors, the selectivity was 18.9 times, 40.7 times and 3424.7 times respectively).

[2] = biological target: T1, A2aR; assay: Antagonism of A2aR activity at the cellular level; type: cell-based
From the text: as §1

[3] = Plasma protein binding; type: in vitro ADME; conditions: human plasma
[4] = Plasma protein binding; type: in vitro ADME; conditions: one range given for CD-1 mice, Sprague-Dawley rats, Beagle dogs and cynomolgus monkeys
[5] = Liver microsome metabolism; type: in vitro ADME
From the text: The main biotransformation pathways of ILB-2109 in in vitro liver microsomes and hepatocytes include oxidation, dehydrogenation and glucuronidation (hepatocyte biotransformation pathway), and no human-specific metabolites were detected.

[6] = Excretion of total radioactivity in intact rats; type: in vivo
Procedure: Excretion mainly occurred within 48 hours after administration, accounting for about 88.01% of the administered dose.

[7] = Single-dose toxicity study in cynomolgus monkeys; conditions: cynomolgus monkey, in vivo, po, single intragastric administration within 24 h, observed 14 days, read-out: maximum tolerated dose (MTD)
Procedure: (§2) In accordance with the relevant requirements of the Good Laboratory Practice for Non-clinical Drug Studies issued by the National Medical Products Administration of the People's Republic of China, and following the test protocol and revisions, the safety pharmacology test, single-dose toxicity, genetic toxicity, etc. of ILB-2109 were explored.
Cynomolgus monkeys were given single intragastric administration of 0 (vehicle), 250, 500 and 1000 mg/kg ILB-2109 and observed continuously for 14 days after single administration. […] Within 30 min ~ 4 h after administration on the day of administration, mild vomiting (a small amount of food-like vomit) occurred in medium and high-dose groups. No abnormalities were found in body weight, food consumption, body temperature, respiration, electrocardiogram, blood routine, ophthalmic examination, clinical examination, bone marrow and gross anatomy. Under the test conditions, the maximum tolerated dose (MTD) of cynomolgus monkeys given single intragastric administration of ILB-2109 within 24 h was 1000 mg/kg. The test substance had effects on digestive system (gastrointestinal function, liver function).

[8] = 4-week repeated-dose toxicity test in cynomolgus monkeys; type: in vivo
From the text: as §2
40 cynomolgus monkeys (half male and half female) were randomly divided into 4 groups with 5 animals per gender in each group, and given intragastric administration of 0 (vehicle), 20, 60 and 200 mg/kg/day ILB-2109 once a day for 28 consecutive days. […] Combined with gross observation and histopathological examination results, the cause of animal death was considered to be related to lung injury. […] All the above changes completely recovered during the recovery period. In addition, no drug-related changes were found in body temperature, respiration, electrocardiogram, ophthalmic examination and bone marrow. There was no gender difference in systemic exposure in each dose group; no obvious accumulation; the increase ratio of systemic exposure was lower than the increase ratio of dose.
Attention should be paid to the potential impact of ILB-2109 on respiratory system, blood system, endocrine system and other systems in clinical use.

[9] = test system: CHL cells; assay: Chromosome aberration test; type: cell-based; conditions: CHL cells treated at 3.2, 16.0 and 80.0 µg/mL
From the text: The test observed the effect of ILB-2109 on chromosome structure and number of mammalian cells (CHL cells).

[10] = test system: bone marrow polychromatic erythrocytes; assay: Micronucleus test; type: in vivo; conditions: SD rats, intragastric 500 ~ 2000 mg/kg
Procedure: SD rats were given intragastric administration of 500 ~ 2000 mg/kg ILB-2109.

[11] = 0-168 hours after single oral administration
[12] = female, cynomolgus monkey, in vivo, 20 mg/kg
[13] = female, cynomolgus monkey, in vivo, 60 mg/kg
[14] = male, cynomolgus monkey, in vivo, 20 mg/kg
[15] = male, cynomolgus monkey, in vivo, 60 mg/kg

T1 sequence (P29274 whole entry): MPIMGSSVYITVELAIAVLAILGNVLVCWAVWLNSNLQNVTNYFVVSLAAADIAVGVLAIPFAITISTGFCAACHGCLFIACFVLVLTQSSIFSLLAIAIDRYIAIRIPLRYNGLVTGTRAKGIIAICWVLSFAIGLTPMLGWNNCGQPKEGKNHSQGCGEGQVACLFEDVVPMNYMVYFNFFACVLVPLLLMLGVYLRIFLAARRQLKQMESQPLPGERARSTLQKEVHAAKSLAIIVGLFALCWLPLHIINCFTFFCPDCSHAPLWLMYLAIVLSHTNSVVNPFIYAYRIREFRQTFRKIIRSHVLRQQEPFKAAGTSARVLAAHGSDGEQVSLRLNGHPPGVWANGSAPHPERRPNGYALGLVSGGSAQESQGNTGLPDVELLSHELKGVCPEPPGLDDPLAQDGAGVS

`Cc1cc(-c2c(-c3ccccc3)nc(N)n3nc(CO)nc23)cc(C(F)(F)F)n1` [ILB-2109] showed an IC50 [1] of 2.92 nM, an IC50 ([2]; antagonism of A2aR activity) of 0.43 nM and an IC50 ([2]; tumor physiological equivalent conditions (NECA 5 µM)) of 1.08 nM. The “binding rate in plasma” value [3] was 95.1-95.8%, the “binding rate in plasma” value [4] was 87.3%-95.0% and the metabolism rate ([5]; Beagle dogs liver microsomes) was “slowly metabolized or non-metabolized”. The metabolism rate ([5]; CD-1 mice liver microsomes) was “moderate rate”, the metabolism rate ([5]; SD rats liver microsomes) was “moderate rate” and the metabolism rate ([5]; cynomolgus monkeys liver microsomes) was “slowly metabolized or non-metabolized”. The metabolism rate ([5]; human liver microsomes) was “slowly metabolized or non-metabolized”, the “average of total radioactivity recovery” value [6, 11] was 91.74% and the “cage washing and cleaning fluid, share of the administered dose” value [6, 11] was 2.75%. For the same molecule, the “feces, share of the administered dose” value [6, 11] was 75.17%, the “total urinary excretion, share of the administered dose” value [6, 11] was 13.81% and the “excretion within 48 hours, share of the administered dose” value ([6]; within 48 hours after administration) was “about 88.01%”. The MTD at 14 days [7] was 1000 mg/kg, the NOAEL at 28 days ([8]; both sexes, cynomolgus monkey, in vivo, po) was 20 mg/kg and the mortality ([8]; cynomolgus monkeys, high-dose group 200 mg/kg/day, death considered related to lung injury) was 1 male animal in the high-dose group was found dying 2 h after administration on D3. It also gave an HNSTD ([8]; cynomolgus monkeys, intragastric once a day, 28 consecutive days) of 60 mg/kg, an AUC(0-t) [8, 12] of 61 µg·h/mL and a Cmax [8, 12] of 5.01 µg/mL. The AUC(0-t) [8, 13] was 149 µg·h/mL, the Cmax [8, 13] was 11.9 µg/mL and the AUC(0-t) [8, 14] was 80.2 µg·h/mL. It also gave a Cmax [8, 14] of 6.58 µg/mL, an AUC(0-t) [8, 15] of 206 µg·h/mL and a Cmax [8, 15] of 14.3 µg/mL. The “chromosome aberration test result” value [9] was “negative” and the micronucleus induction [10] was “no micronucleus-inducing effect”.
